# Reference: patent US20030092692A1, “Cytoprotective steroids (II)” (priority 2000, published 2003)
# Columns and labels:
# [1] = tested on: CA1 pyramidal cell layer of organotypic hippocampal slice cultures; assay: Hypoxic challenge of organotypic hippocampal slice cultures (PI fluorescence); format: cell-based, Wistar rat; conditions: 180 min hypoxia, 24 h recovery, hypoxia control 27.6±3.7%
# Experimental: Organotypic hippocampal slice cultures were prepared using the basic method of Pringle et al (1997) modified as follows:
# Wistar rat pups (8-11 days old) were decapitated and the hippocampus rapidly dissected into ice-cold Goy's balanced salt solution supplemented with 4.5 mg/ml glucose. Slices were separated and plated into Millicell CM culture inserts (4 per well) and maintained at 37° C./5% CO2 for 14 days. Maintenance medium consisted of 25% heat-inactivated horse serum, 25% Hank's balanced salt solution (HBSS) and 50% minimum essential medium with added Earle's salts (MEM) supplemented with 1 mM glutamine and 4.5 mg/ml glucose.
# Experimental hypoxia was performed as described previously (Pringle et al., (1996) Stroke 27, p2124-2130, (1997) Brain Research 755-46). Briefly, cultures were transferred to serum free medium (SFM—75% MEM, 25% HBSS supplemented with 1 mM glutamine and 4.5 mg/ml glucose) containing 5 μg/ml of the fluorescent exclusion dye propidium iodide (PI). Cultures were allowed to equilibrate in SFM for 60 minutes prior to imaging. PI fluorescence was detected using a standard Leica inverted microscope fitted with a rhodamine filter set (Leica N2). Any cultures in which PI fluorescence was detected at this stage were excluded from further study. Hypoxia was induced by transferring cultures to SFM (+PI) which had been saturated with 95% N2/5% CO2. Culture plates (without lids) were then sealed into an airtight chamber in which the atmosphere was saturated with 95% N2/5% CO2 by continuously blowing through gas at 1000 ml/min for ten minutes before being sealed and placed in the incubator for 170 mins (total time of hypoxia was therefore 180 mins). At the end of the hypoxia period cultures were returned to normoxic SFM containing PI and placed back in the incubator for 24 hours.
# Neuronal damage was assessed as described previously (Pringle et al., 1996, 1997) using NIH Image 1.60 running on an Apple IIsi computer. Images were captured using a COHU monochrome camera and saved onto optical disk for offline analysis using NIH image. Light transmission images were captured prior to the addition of drugs, and PI fluorescence images recorded at the end of the 24 hour post-hypoxia recovery period. The areas of the CA1, CA3 and dentate gyrus (DG) cell layers were determined from the transmission image. The area of PI fluorescence in each of the cell layers was measured using the density slice function within NIH Image, and neuronal damage expressed as the percentage of the regional area in which PI fluorescence was detected above background.
# Steroid compounds were prepared by making an initial 1 mg/ml solution in ethanol and further diluting down in SFM. Compounds were included in the cultures for 45 minutes prior to hypoxia, during the hypoxic episode and during the post-hypoxic recovery period. Control experiments consisted of cultures treated with vehicle alone.
# [2] = tested on: Rat cortical neurons; assay: Glutamate induced neuronal cell death of primary cortical cultures (LDH release); format: cell-based, Wistar rat; conditions: for effect on normal cell death: without glutamate
# Experimental: Rat cortical neurons were cultured by modification of the methods of Dichter (1973) Brain Res 149, p279-293 and Durkin et al (1996) J. Neurochem 66, p951-962. A female Wistar rat (Janvier, Le Genest-St-Isle, France: ref RJ WAF151) of 17 days gestation was killed by cervical disclocation, the foetuses removed on embryonoic day 17 and brains removed and placed in ice-cold calcium/magnesium free Hanks balanced salt solution (HBSS: Gibco Life Technologies, Cergy-Pontoise, France: ref 14170-088 batch 302790). Each cortex was dissected and meninges were carefully removed.
# The cortical neurons were dissociated by trypsinization for 5 minutes at 37° C. (trypsin: 0.5 mg/ml: Difco, LPCR, Strasbourg: ref 0152-14 batch 128856JC) and the reaction stopped by addition of HBSS containing calcium and magnesium (HBSS+ Gibco ref 24020-091; batch 3010598) with 10% of fetal bovine serum FBS; Gibco; ref 1027-098; batch 40Q1681K and 1 mg/ml DNase I (Boehringer Mannheim, Meylan, France; ref 1284938; batch 14880300).
# The suspension was triturated with a 10 ml pipette (stripette Costar, Dutscher, Brumath, France) and was added in a centrifuge tube (Tube 50 ml Corning, Dutscher) containing 20 ml HBSS^− with 3.5% of BSA (Sigma, L'Isle D'Abeau Chesnes, ref. A6003, batch 29H7606) and centrifuged at low speed (150×g) for 10 min (apparatus Sigma 2-15, Bioblock, Illkirch, France).
# The cells were resuspended in Dulbecco's Modified Eagle Medium (DMEM; Gibco; ref. 41965-039; batch 3032129), containing 20% FBS. Viable cells were quantified and plated at 35,000/well in 96 well plates (Nunclon, Gibco) previously coated with poly-L-lysine (0.01 mg/ml, France; ref. P5899; batch 28H8504). Cells were allowed to adhere 2 h and maintained in a humidified incubator at 37° C. in 5% CO2-95% air atmosphere.
# Culture medium was then changed to a medium consisting of DMEM, 10% heat-inactivated FBS, 10% heat-inactived horse serum (Gibco, ref. 16505-080; batch 3030347) and 1% L-Glutamine (Gibco, ref. 25030-024; batch 3031499).
# Since the cultures were mixed populations containing both neurons and glial cells, to minimize glial growth, the cultures were treated for 2 days with 15 μg/ml of 5-fluoro-2′-deoxyuridine (Sigma; ref. F8791; batch 97H4048) and 35 μg/ml of uridine (Sigma, ref. U3003; batch 18H11965) on day 4 of culture.
# Following exposure to mitotic inhibitors, one-half of the medium was removed and replaced with growth medium consisting of 89% DMEM, 10% horse serum and 1% L-glutamine.
# Glutamate toxicity experiments were performed after 13 days in culture (Glutamic acid; Sigma, ref. G6904; batch 18H11381).
# On day 12, twenty-four hours before glutamate exposure, cultures were washed with DMEM and placed in medium DMEM/Ham12 with supplements but without estradiol.
# The reference compounds, estradiol (Sigma, ref. E8875; batch 98H40953) and DHEA (Sigma, ref. D4000; batch 97H0301), and test compound were added at concentrations of 2, 10, 50 and 100 nM. Human FGF-basic (Tebu, Le Perray-en-Yvelines, France; ref. 100-18B; batch 107R0806 E118) was included as an additional reference and was tested at 5, 10 and 20 ng/ml. All compounds were dissolved at 10 mM in ethanol 100% (LPCR, ref. 20821467; batch J109), diluted 10,000 fold in DMEM and stocked at −20° C.
# The effect of the test molecule on survival of cultured neurones was investigated alone and in intoxication conditions. The effect of the ethanol was also tested at the highest concentration used for dilution of the test molecules (100 nM=0.001% ethanol).
# On day 13, cultures were exposed to glutamate 0.50, 100, 150, 200, 250, 300, 400 and 500 μM for 10 min at 37° C. in DMEM/hamF12 with supplement. The effects of the 2 reference compounds and the test compound was investigated in the presence of glutamate.
# After the incubation period, the cultures were washed with DMEM and placed in DMEM/Ham12 with supplement either in the absence or presence of the compound to evaluate their post intoxication effects. […]
# [3] = tested on: estrogenic activity; conditions: cited from earlier work
# [4] = tested on: NMDA receptors; conditions: cited from earlier work
molecule,measurement,setting,value
C[C@]12CC[C@H](O)CC1=C[C@@H](O)[C@@H]1[C@@H]2CC[C@]2(C)C(=O)CC[C@@H]12 [7α-hydroxy-DHEA],neuronal damage: PI fluorescence as % of CA1,[1]; 10 nM,1.1±0.9%
same,neuronal death in CA1,[1]; concentration not given,4.3±1.3%
same,effect on normal cell death,[2]; 10 nM,significantly decreased normal cell death
C[C@]12CC[C@H](O)CC1=CC[C@@H]1[C@@H]2CC[C@]2(C)C(=O)CC[C@@H]12 [DHEA],effect on normal cell death,[2]; 10 nM,protect significantly
same,effect on normal cell death,[2]; 50 nM,protect significantly
same,protection of cortical neurones from glutamate neurotoxicity,"[2]; doses of 0, 50 and 100 nM, glutamate 200 μM",failing to protect
"C[C@]12CC[C@@H]3c4ccc(O)cc4C[C@@H](O)[C@H]3[C@@H]1CC[C@@H]2O [7α-hydroxy-estradiol, Estra-1,3,5(10)-triene 3,7α,17β-triol]",neuronal damage: PI fluorescence as % of CA1,[1]; 1 nM,21.5±11.3%
same,neuronal damage: PI fluorescence as % of CA1,[1]; 10 nM,13.0±4.7%
same,neuronal damage: PI fluorescence as % of CA1,[1]; 100 nM,5.9±2.1%
same,estrogenic activity as fraction of that of estrone,[3],1/300
CC12CCC3c4ccc(O)cc4CC(=O)C3C1CCC2O (stereo not shown) [7-keto-estradiol],estrogenic activity as fraction of that of estrone,[3],1/300
CC(=O)[C@H]1CC[C@H]2[C@@H]3[C@H](O)C=C4C[C@@H](O)CC[C@]4(C)[C@H]3CC[C@]12C [7α-hydroxy-pregnenolone],neuronal damage: PI fluorescence as % of CA1,[1]; 100 nM,11.6±4.0%
same,less cell death in presence of glutamate,"[2]; 10 nM, glutamate 200 μM",up to 10%
C[C@]12CC[C@@H]3c4ccc(O)cc4CC[C@H]3[C@@H]1CC[C@@H]2O [estradiol],effect on cell death in glutamate toxicity assay (FIG. 3),[2]; primary cortical neurones,no effect
CC(=O)[C@H]1CC[C@H]2[C@@H]3C(=O)C=C4C[C@@H](OS(=O)(=O)O)CC[C@]4(C)[C@H]3CC[C@]12C [7-keto-pregnenolone sulphate],decrease of NMDA response,[4],12%
3α-hydroxy-5β-pregnan-20-one sulphate,decrease of NMDA response,[4],76%
